Here are results for four molecules from patent publication US5516782A, “New meso-azacyclic aromatic acid amides and esters as novel serotonergic agents” (G. D. Searle & Co., priority 1995, dated 1996).

In one assay the target is 5-HT4 receptor (Rattus norvegicus, UniProt Q62758). The experiment in a line: cell-based. To be noted: rat esophagus tunica muscularis mucosae contracted with carbachol (3 μM); tissues from 5 rats; 37° C.; read-out: EC50 values for agonists at this 5-HT4 receptor. The method, then:
Agonist activity was determined utilizing relaxation of carbachol-contracted rat tunica muscularis mucosae. One 2 cm segment of intrathoracic esophagus proximal to the diaphragm was removed from male rats, weighing approximately 300 gm, and the outer muscle layers removed. The inner tunica muscularis mucosa was mounted under 0.2-0.3 g of tension in a tissue bath containing oxygenated Tyrode's solution at 37° C. […] Following a 30 min equilibrium period, tissues were isometrically contracted with carbachol (3 μM) to obtain a tonic contraction. A stable plateau was obtained within 20 min when test compound was added cumulatively to relax the muscle strip. EC50 values were obtained for each agonist in tissues from 5 rats.

Another assay has as its target T1, 5-HT3 receptor (Rattus norvegicus, UniProt P35563).
T1 construct: Brain cortices are obtained from male rats and a membrane fraction prepared by standard techniques; from tissue; host or cells: rat brain cortex membranes
T1 sequence (P35563 24-483): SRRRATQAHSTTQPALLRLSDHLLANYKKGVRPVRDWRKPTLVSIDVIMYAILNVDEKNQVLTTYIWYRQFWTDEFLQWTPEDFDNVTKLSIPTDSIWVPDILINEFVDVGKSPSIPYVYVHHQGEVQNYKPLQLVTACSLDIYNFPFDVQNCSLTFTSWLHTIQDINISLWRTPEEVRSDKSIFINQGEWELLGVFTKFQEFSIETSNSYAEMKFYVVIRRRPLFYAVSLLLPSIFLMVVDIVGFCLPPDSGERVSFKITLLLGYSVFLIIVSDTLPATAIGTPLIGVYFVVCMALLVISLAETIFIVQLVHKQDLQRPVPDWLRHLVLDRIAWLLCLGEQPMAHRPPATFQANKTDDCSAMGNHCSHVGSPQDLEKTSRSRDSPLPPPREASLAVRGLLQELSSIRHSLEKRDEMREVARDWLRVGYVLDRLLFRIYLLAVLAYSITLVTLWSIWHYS
The experiment in a line: Serotonin (5-HT3) radioligand receptor binding assay ([3H]-GR65630, rat brain cortex membranes). As to the method:
5-HT3 antagonism can be determined by the radioligand receptor binding assay as described herein and in the in vivo Bezold-Jarisch reflex procedure.
GR65630 binds to the 5-HT3 receptor. Brain cortices are obtained from male rats and a membrane fraction prepared by standard techniques. 0.04 mg of membrane prep is incubated with 0.2 nM [^3 H]-GR656630 for 60 minutes at 22° C. […] Membranes are filtered and washed 3 times and the filters are counted to determine [3H]-GR65630 specifically bound.*
Kilpatrick G. J., Jones B. J. and Tyers M. B. Identification and distribution of 5-HT3 receptors in rat brain using radioligand binding. Nature, 330: 746-748, 1987.

Sequence of 5-HT4 receptor (Q62758 whole entry): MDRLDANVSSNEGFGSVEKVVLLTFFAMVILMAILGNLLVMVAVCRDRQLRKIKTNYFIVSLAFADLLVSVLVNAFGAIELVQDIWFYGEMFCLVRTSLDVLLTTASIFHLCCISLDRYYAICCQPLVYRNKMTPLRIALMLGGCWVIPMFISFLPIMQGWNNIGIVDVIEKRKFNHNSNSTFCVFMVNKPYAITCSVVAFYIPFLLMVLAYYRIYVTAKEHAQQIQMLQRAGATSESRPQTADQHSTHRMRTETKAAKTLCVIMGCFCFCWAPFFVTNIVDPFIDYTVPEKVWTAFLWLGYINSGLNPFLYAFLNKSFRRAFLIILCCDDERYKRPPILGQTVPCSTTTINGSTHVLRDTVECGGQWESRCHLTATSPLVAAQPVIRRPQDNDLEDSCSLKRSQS

In the case of `COc1cc(N)c(Cl)cc1C(=O)NCC12CCCN1CCC2` [Example 1, 4-amino-5-chloro-2-methoxy-N-(tetrahydro-1H-pyrrolizin-7a (5H) -ylmethyl)benzamide], at 5-HT4 receptor, the EC50 amounted to 0.422 µM.

On to `COc1cc(N)c(Cl)cc1C(=O)NCC12CC3CN(CC3C1)C2` [Example 9, 4-amino-5-chloro-N-[(hexahydro-2,5β-methano-1H-3aR,3aα,6aα-cyclopenta[c]pyrrol-5-yl)methyl]-2-methoxybenzamide], for which, at 5-HT4 receptor, the EC50 worked out at 0.216 µM.

Regarding `Cc1nc[nH]c1CCC(=O)c1cn(C)c2ccccc12` [GR65630], the “% Specific Binding” value on 5-HT3 receptor (radioligand, non-specific binding estimated in the presence of 1 uM ICS 205-930) is listed as 70%.

For the molecule `COc1ccc2[nH]cc(C3=CCNCC3)c2c1` [RU24969], the Ki on 5-HT3 receptor turned out to be 0.00185 µM.
